The target in one test is T1, HIV protease (Human immunodeficiency virus type 1 group M subtype B, UniProt P04585).
T1 construct: HIV protease was expressed in E. coli; made in house; host or cells: E. coli
In words: Recombinant HIV Protease HPLC Assay. The test is classed as biochemical. The note with it: recombinant HIV protease expressed in E. coli; substrate VSFNFPQITL-NH2; pH 5.5; 37°, 30 min; read-out: IC50, concentration of the test compound which causes a 50% inhibition of the HIV-protease. The source says:
The procedure is based on the capacity of the test compound to inhibit enzymatic cleavage by HIV protease of a decapeptide (the substratel having an amino acid sequence which includes a known HIV protease cleavage site of a HIV polyprotein; see H. G. Krausslich et al., Proc. Natl. Acad. Sci. U.S.A., 86, 807 (1989). Details of this assay together with the results obtained for exemplified compounds of formula 1 are described in the examples hereinafter.
Enzyme: HIV protease was expressed in E. coli {construct pBRT1 prt^+, see W. G. Farmerie et al., Science, 236, 305 (1987)}, according to the following protocol: Unless stated otherwise, all solutions are aqueous solutions.
E. coli cells containing the pBRT1 prt^+ plasmid were used to inoculate a seed culture media composed of Luria-Bertani Broth containing 100 μg/mL of ampicillin. Flasks were incubated at 37° under agitation for 17 h. Production flasks containing sterile M9 broth, supplemented with 100 μg/mL of ampicillin, were inoculated at a level of 1% (v/v) using the seed culture described above. Total volume in each production flask was 500 mL in a 2 L Erlenmeyer flask. Flasks were incubated at 37° under agitation until a cell concentration corresponding to an optical density (λ=540 μm) of 0.6 was reached (no dilution). This time span was routinely 3-4 h. Flasks were then supplemented with 5 mM isopropylthiogalactoside (IPTG, Research Organics, Cleveland, Ohio, USA) and incubation was continued until the cell concentration reached an optical density of 0.2 at 16-fold dilution. Flasks were then supplemented with 1 mM phenylmethylsulfonyl fluoride (PMSF) and rapidly chilled to 4°. The bacterial cells were recovered by centrifugation at 4°. The wet pellet was stored at -70°.
All steps below were perfomed at 4° unless otherwise indicated. Thawed cells were mixed with buffer A {50 mM tris(hydroxymethyl)aminoethane HCl (Tris-HCl, pH 7.4); 0.6 mM ethylenediaminetetraacetic acid (EDTA); 0.375M NaCl, 0.2% Nonidet P-40® (BDH Chemicals Ltd., Poole, UK); 1 mM PMSF}, at a ratio of one part cells to nine parts buffer A. Diatomaceous earth (Celite 545® John Manville, Lompoc, Calif. U.S.A.) was added at a ratio of two parts to one part of wet cell weight. The resulting slurry was homogenized at high speed (ca. 20,000 rpm) on a Waring® industrial blender for 8×15 sec. pulses. Cell debris/Celite® was collected by centrifugation and the resulting pellet was extracted with 4.5 parts of buffer A to one part wet solids using the homogenization procedure described above. Supernatants from both homogenization steps were combined and soluble protein was precipitated by the addition of solid (NH4)2 SO4 to yield a final concentration of 75% saturation. This mixture was agitated for 60 min and the precipitate was recovered by centrifugation. The resulting pellet was suspended in buffer B {50 mM Tris-HCl, pH 8; 30 mM NaCl; 1 mM DL-dithiothreitol (DTT); 1 mM EDTA; mM PMSF; 10% glycerol}, and dialyzed for 18 h against the same buffer.
An aliquot of the dialyzed extract containing 150 mg of the protein was loaded onto a Sephadex A25® anion exchange column (Pharmacia, Uppsala, Sweden) with bed dimensions of 70 cm length and 2.5 cm diameter. The sample was eluted isocratically with buffer B at a linear flow rate of 10 cm/h. Fractions containing HIV protease activity (see below for assay description) were combined, and soluble protein was precipitated by the addition of saturated aqueous (NH4)2 SO4 to yield a total (NH4)2 SO4 concentration of 85% saturation. Precipitated protein was removed by centrifugation and the resulting pellet was dissolved in buffer C {50 mM 2-(4-morpholino)ethanesulfonic acid (MES), pH 5.5; 150 mM NaCl; 1 mM DTT; 1 mM EDTA; 10% glycerol}. This preparation was dialyzed for 18 h against buffer C, and then frozen at -70°. All crude extracts were purified by chromatography in aliquots containing 150 mg of protein in the same manner as described above. […]

The subject of test [1] is HIV (H9/HTLV-IIIB) in HTLV-I transformed C8166 cells. In words: plaque assay, inhibition of HIV (H9/HTLV-IIIB) syncytia formation in C8166 cells. The test is classed as cell-based. The settings on record: Human immunodeficiency virus 1, fifty times TCID50, 37°, 72 h, read-out: EC50, concentration of the test compound which causes a 50% inhibition of syncytia formation. The source says: Typical of such procedures are those described by S. Harada and N. Yamamoto, Jpn. J. Cancer Res. (Gann), 76, 432 (1985), and S. Harada et al., Science, 229, 563 (1985). An assay based on the latter procedures is described in the examples hereinafter.
The following protocol, used for screening antiviral effects of the compounds of formula 1, is adapted from a plaque assay utilizing HTLV-I transformed cells, previously reported by Harada et al., supra. HTLV-I transformed cells are used because of the rapidity with which HIV will replicate in the cells.
1. The test compound is dissolved in dimethylsulfoxide to a concentration of 5 mg/mL. The resultant solution can be stored at 4° until use.
2. The resultant solution is diluted in RPMI 1640 (Gibco Laboratories, St. Lawrence, Mass., USA) to four times (4×) the final concentration which is to be tested. Once diluted in RPMI 1640, the solution is used in the cell culture assay within 4 h.
3. The 4×solution (50 μL) is added to triplicate wells of a 96 well flat bottomed microtiter plate. RPMI (50 μL) also is added to control wells.
4. C8166 cells (5×10^4) in […] of HEPES-buffered RPMI 1640 (pH=7.2), 10% heat inactivated fetal calf serum (FCS), […] gentamicin (complete media) are added to all wells.
5. Fifty times TCID50 of H9/HTLV-IIIB stock (stored in liquid nitrogen as cell culture supernatant in 50% FCS) in 100 μL of complete media is added to all wells. Infectious titer of virus stocks are as previously determined by end point dilution on C8166 cells. Titer of stocks are stable for 6-12 months when stored at -193°.
6. Microtiter plates are then placed on level shelves of a 37°, 5% CO2 humidified incubator for 72 h.
7. Plates are then removed and centers of syncytia are counted in each well by low power phase contrast light microscopy. […] Control wells should have between 25 and 75 centers of syncytia per well.
8. Percent inhibition of syncytia formation is calculated by the formula: [formula]
The concentration of the test compound which causes a 50% inhibition of syncytia formation, i.e. the EC50, is determined by using the technique of serial dilution of the working solution at step 3 and graphically plotting the observed percent inhibition of syncytia formation against the various concentrations of the test compound.

As for `CC(C)[C@H](NC(=O)OCc1ccccc1)C(=O)N[C@@H](Cc1ccccc1)[C@H](O)CN1C[C@H](OCc2ccccc2)C[C@H]1C(=O)NC(C)(C)C` [Entry 2], the IC50 on HIV protease came out at 16 nM.
On the same count and under the same terms, in the case of `CC(C)[C@H](NC(=O)c1ccc2ccccc2n1)C(=O)N[C@@H](Cc1ccccc1)[C@H](O)CN1C[C@H](Sc2ncccn2)C[C@H]1C(=O)NC(C)(C)C` [Entry 10] it was 4.7 nM.
Turning to `Cc1cccc(C)c1OCC(=O)N[C@@H](Cc1ccccc1)[C@H](O)CN1C[C@H](Sc2ncccn2)C[C@H]1C(=O)NC(C)(C)C` [Entry 13], the IC50 at HIV protease was 4.6 nM.
As for `Cc1cccc(C)c1OCC(=O)N[C@@H](Cc1ccccc1)[C@H](O)CN1C[C@H](SCc2cccnc2)C[C@H]1C(=O)NC(C)(C)C` [Entry 14], the IC50 at HIV protease was found to be 43 nM.
Regarding `CC(C)(C)NC(=O)[C@@H]1C[C@@H](OCc2ccccc2)CN1C[C@@H](O)[C@H](Cc1ccccc1)NC(=O)[C@H](CC(N)=O)NC(=O)OCc1ccccc1` [Table I Entry 3, 4(R)-Benzyloxy-1-{3(S)-{{N-(benzyloxycarbonyl)asparaginyl}amino}-2(R)-hydroxy-4-phenylbutyl}-N-tert-butylpyrrolidine-2(S)-carboxamide], the IC50 on HIV protease was 39 nM. Also, the EC50 in test [1] worked out at 600 nM.
Turning to `CC(C)(C)NC(=O)[C@@H]1C[C@H](OCc2ccccc2)CN1C[C@@H](O)[C@H](Cc1ccccc1)NC(=O)[C@H](CC(N)=O)NC(=O)OCc1ccccc1` [Table I Entry 4, 4(S)-Benzyloxy-1-{3(S)-{{N-(benzyloxycarbonyl)asparaginyl}amino}-2(R)-hydroxy-4-phenylbutyl}-N-tert-butylpyrrolidine-2(S)-carboxamide], the IC50 on HIV protease was 300 nM.
Same read-out and setting: then `CC(C)CO[C@H]1C[C@@H](C(=O)NC(C)(C)C)N(C[C@@H](O)[C@H](Cc2ccccc2)NC(=O)[C@@H](NC(=O)OCc2ccccc2)C(C)C)C1` [Table I Entry 5, 1-{3(S)-{{N-(benzyloxycarbonyl)valyl}amino}-2(R)-hydroxy-4-phenylbutyl}-N-tert-butyl-4(S)-(2-methylpropyloxy)pyrrolidine-2(S)-carboxamide], with 745 nM.
As to `CC(C)CO[C@@H]1C[C@@H](C(=O)NC(C)(C)C)N(C[C@@H](O)[C@H](Cc2ccccc2)NC(=O)[C@@H](NC(=O)OCc2ccccc2)C(C)C)C1` [Table I Entry 6, 1-{3(S)-{{N-(benzyloxycarbonyl)valyl}amino}-2(R)-hydroxy-4-phenylbutyl}-N-tert-butyl-4(R)-(2-methylpropyloxy)pyrrolidine-2(S)-carboxamide], at HIV protease, the IC50 stood at 180 nM. Moreover, the EC50 in test [1] was 3000 nM.
Consider `CC(C)[C@H](NC(=O)OCc1ccccc1)C(=O)N[C@@H](Cc1ccccc1)[C@H](O)CN1C[C@H](OCc2ccccc2)C[C@H]1C(=O)NC1CC1` [Table I Entry 7, 4(R)-Benzyloxy-1-{3(S)-{{N-(benzyloxycarbonyl)valyl}amino}-2(R)-hydroxy-4-phenylbutyl}-N-cyclopropylpyrrolidine-2(S)-carboxamide], for which the IC50 at HIV protease was found to be 100 nM. Also, the EC50 in test [1] was found to be 900 nM.
In the same order, the values of `CC(C)(C)NC(=O)[C@@H]1C[C@@H](Cc2ccccc2)CN1C[C@@H](O)[C@H](Cc1ccccc1)NC(=O)[C@H](CC(N)=O)NC(=O)OCc1ccccc1` [Table I Entry 8, 4(R)-Benzyl-1-{3(S)-{{N-(benzyloxycarbonyl)asparaginyl}amino}-2(R)-hydroxy-4-phenylbutyl}-N-tert-butylpyrrolidine-2(S)-carboxamide] are 48 nM and 700 nM.
With `CC(C)(C)NC(=O)[C@@H]1C[C@H](Cc2ccccc2)CN1C[C@@H](O)[C@H](Cc1ccccc1)NC(=O)[C@H](CC(N)=O)NC(=O)OCc1ccccc1` [Table I Entry 9, 4(S)-Benzyl-1-{3(S)-{{N-(benzyloxycarbonyl)asparaginyl}amino}-2(R)-hydroxy-4-phenylbutyl}-N-tert-butylpyrrolidine-2(S)-carboxamide], the IC50 on HIV protease amounted to 780 nM. The EC50 in test [1] is 4000 nM.
In the case of `CC(C)[C@H](NC(=O)c1ccc2ccccc2n1)C(=O)N[C@@H](Cc1ccccc1)[C@H](O)CN1C[C@H](Sc2ncccn2)C[C@H]1C(=O)NC(C)(C)C` [Table I Entry 10, N-tert-butyl-1-{2(R)-hydroxy-4-phenyl-3(S)-{{N-(2-quinolinylcarbonyl)valyl}amino}butyl}-4(R)-(2-pyrimidinylthio)pyrrolidine-2(S)-carboxamide], the EC50 in test [1] was found to be 250 nM.
As for `CC(C)[C@H](NC(=O)c1ccc2ccccc2n1)C(=O)N[C@@H](Cc1ccccc1)[C@H](O)CN1C[C@H](SCc2cccnc2)C[C@H]1C(=O)NC(C)(C)C` [Table I Entry 11, N-tert-butyl-1-{2(R)-hydroxy-4-phenyl-3(S)-{{N-(2-quinolinylcarbonyl)valyl}amino}butyl}-4(R)-{(3-pyridinylmethyl)thio}pyrrolidine-2(S)-carboxamide], the IC50 at HIV protease was 12 nM. In test [1], the EC50 was determined as 480 nM.
For the compound `Cc1cccc(C)c1OCC(=O)N[C@@H](Cc1ccccc1)[C@H](O)CN1C[C@H](Sc2ncccn2)C[C@H]1C(=O)NC(C)(C)C` [Table I Entry 13, N-tert-butyl-1-{3(S)-{{(2,6-dimethylphenoxy)acetyl}amino}-2(R)-hydroxy-4-phenylbutyl}-4(R)-(2-pyrimidinylthio)pyrrolidine-2(S)-carboxamide], in test [1], the EC50 is 250 nM.

The values above are taken from US5552405A, “Substituted pyrrolidine derivatives as HIV protease inhibitors” (Bio-Mega/Boehringer Ingelheim Research, Inc., priority 1995, dated 1996).
